Data: PubChem BioAssay (NCI)
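How tested: cells in 96-well plates exposed to compound for 48 hours at five concentrations. Here, GI50 denotes the concentration required for 50% inhibition of growth. TGI marks complete inhibition of growth.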

What was measured:
Test in all cases: DTP human tumour cell line panel, 48 h
COLO 205 colon = tested on: COLO 205 colon
HL-60(TB) leukemia = tested on: HL-60(TB) leukemia
M14 melanoma = tested on: M14 melanoma
OVCAR-3 ovarian = tested on: OVCAR-3 ovarian
OVCAR-5 ovarian = tested on: OVCAR-5 ovarian
OVCAR-8 ovarian = tested on: OVCAR-8 ovarian
SF-539 CNS = tested on: SF-539 CNS
SK-MEL-28 melanoma = tested on: SK-MEL-28 melanoma
SNB-19 CNS = tested on: SNB-19 CNS
T-47D breast = tested on: T-47D breast

CC(=O)N1CN2C(=O)CCC2c2cc(C)ccc21 (stereo unspecified) gave a TGI (COLO 205 colon) greater than 100 µM, a TGI (HL-60(TB) leukemia) greater than 100 µM and a TGI (M14 melanoma) greater than 100 µM. It also gave a TGI (OVCAR-3 ovarian) greater than 100 µM, a TGI (OVCAR-5 ovarian) greater than 100 µM and a TGI (OVCAR-8 ovarian) greater than 100 µM. For the same compound, the TGI (SF-539 CNS) was greater than 100 µM, the TGI (SK-MEL-28 melanoma) was greater than 100 µM and the TGI (SNB-19 CNS) was greater than 100 µM. It also gave a TGI (T-47D breast) greater than 100 µM.
For CC(C)(C)c1cc(C(C)(C)C)c2sc(=O)oc2c1O, the TGI (COLO 205 colon) was 33.7 µM, the TGI (HL-60(TB) leukemia) was 19.6 µM and the TGI (M14 melanoma) was 31.6 µM. It also gave a TGI (OVCAR-3 ovarian) of 25.9 µM, a TGI (OVCAR-5 ovarian) of 33.4 µM and a TGI (OVCAR-8 ovarian) of 31.2 µM. It also gave a TGI (SF-539 CNS) of 30.9 µM, a TGI (SK-MEL-28 melanoma) of 32.5 µM and a TGI (SNB-19 CNS) of 32.2 µM. The TGI (T-47D breast) was 19.8 µM.
Work on CCOc1ccc(Nc2nc(N)nc(N)c2N=O)cc1 yielded a TGI (COLO 205 colon) greater than 100 µM, a TGI (HL-60(TB) leukemia) greater than 100 µM and a TGI (M14 melanoma) greater than 100 µM. The TGI (OVCAR-3 ovarian) was greater than 100 µM, the TGI (OVCAR-5 ovarian) was greater than 100 µM and the TGI (OVCAR-8 ovarian) was greater than 100 µM. It also gave a TGI (SF-539 CNS) greater than 100 µM, a TGI (SK-MEL-28 melanoma) greater than 100 µM and a TGI (SNB-19 CNS) greater than 100 µM. It also gave a TGI (T-47D breast) greater than 100 µM.
With CC1CC(C)(C)CC(OCCN2CCCCC2)(c2ccccc2)C1 (stereo unspecified) the TGI (COLO 205 colon) was 21.8 µM, the TGI (HL-60(TB) leukemia) was 27.9 µM and the TGI (M14 melanoma) was 14.4 µM. For the same compound, the TGI (OVCAR-3 ovarian) was 22.5 µM, the TGI (OVCAR-5 ovarian) was 18.2 µM and the TGI (OVCAR-8 ovarian) was 30.3 µM. It also gave a TGI (SF-539 CNS) of 29.4 µM, a TGI (SK-MEL-28 melanoma) of 29.7 µM and a TGI (SNB-19 CNS) of 26.7 µM. The TGI (T-47D breast) was 29.5 µM.
Compound CCOC(=O)c1c(-c2ccc(Cl)cc2)c(C#N)c(=S)n(C2OC(COC(C)=O)C(OC(C)=O)C(OC(C)=O)C2OC(C)=O)c1C (stereo unspecified) has a TGI (COLO 205 colon) greater than 100 µM, a TGI (HL-60(TB) leukemia) greater than 100 µM and a TGI (M14 melanoma) greater than 100 µM. For the same compound, the TGI (OVCAR-3 ovarian) was greater than 100 µM, the TGI (OVCAR-5 ovarian) was greater than 100 µM and the TGI (OVCAR-8 ovarian) was greater than 100 µM. For the same compound, the TGI (SF-539 CNS) was greater than 100 µM, the TGI (SK-MEL-28 melanoma) was greater than 100 µM and the TGI (SNB-19 CNS) was greater than 100 µM. For the same compound, the TGI (T-47D breast) was greater than 100 µM.
O=c1ccc(=O)c2c1c1[nH]c3ccccc3c1c1c(=O)c3ccccc3c(=O)c21 gave a TGI (COLO 205 colon) greater than 10 µM, a TGI (HL-60(TB) leukemia) of 9.85 µM and a TGI (M14 melanoma) greater than 10 µM. For the same compound, the TGI (OVCAR-3 ovarian) was greater than 10 µM, the TGI (OVCAR-5 ovarian) was greater than 10 µM and the TGI (OVCAR-8 ovarian) was greater than 10 µM. The TGI (SF-539 CNS) was greater than 10 µM, the TGI (SK-MEL-28 melanoma) was greater than 10 µM and the TGI (SNB-19 CNS) was greater than 10 µM. For the same compound, the TGI (T-47D breast) was greater than 10 µM.
In the case of N#Cc1cc2c(n(C3OC(CO)C(O)C(O)C3O)c1=S)CCC2 (stereo unspecified), the TGI (COLO 205 colon) is reported as greater than 100 µM, the TGI (HL-60(TB) leukemia) is reported as greater than 100 µM and the TGI (M14 melanoma) is reported as greater than 100 µM. It also gave a TGI (OVCAR-3 ovarian) greater than 100 µM, a TGI (OVCAR-5 ovarian) greater than 100 µM and a TGI (OVCAR-8 ovarian) greater than 100 µM. For the same compound, the TGI (SF-539 CNS) was greater than 100 µM, the TGI (SK-MEL-28 melanoma) was greater than 100 µM and the TGI (SNB-19 CNS) was greater than 100 µM. It also gave a TGI (T-47D breast) greater than 100 µM.
With CN=C1C=C(/N=C2/C=C(N/C(=C\C#N)C(C)(C)O)OC2(C)C)OC1(C)C the TGI (COLO 205 colon) was greater than 100 µM, the TGI (HL-60(TB) leukemia) was 5.83 µM and the TGI (M14 melanoma) was greater than 78.4 µM. It also gave a TGI (OVCAR-3 ovarian) greater than 100 µM, a TGI (OVCAR-5 ovarian) greater than 100 µM and a TGI (OVCAR-8 ovarian) greater than 47.2 µM. It also gave a TGI (SF-539 CNS) greater than 100 µM, a TGI (SK-MEL-28 melanoma) greater than 100 µM and a TGI (SNB-19 CNS) greater than 100 µM. The TGI (T-47D breast) was greater than 100 µM.
CCOC(=O)C(NC(=O)c1ccccc1)(Nc1ccc(S(=O)(=O)Nc2cc(C)on2)cc1)C(F)(F)F (stereo unspecified) was tested, and the TGI (COLO 205 colon) was greater than 100 µM, the TGI (HL-60(TB) leukemia) was greater than 100 µM and the TGI (M14 melanoma) was greater than 100 µM. The TGI (OVCAR-3 ovarian) was greater than 100 µM, the TGI (OVCAR-5 ovarian) was greater than 100 µM and the TGI (OVCAR-8 ovarian) was greater than 100 µM. For the same compound, the TGI (SF-539 CNS) was greater than 100 µM, the TGI (SK-MEL-28 melanoma) was greater than 100 µM and the TGI (SNB-19 CNS) was greater than 100 µM. For the same compound, the TGI (T-47D breast) was greater than 100 µM.
For CCOC(=O)NC(Nc1ccc(C(=O)O)cc1)(C(F)(F)F)C(F)(F)F, the TGI (COLO 205 colon) was greater than 100 µM, the TGI (HL-60(TB) leukemia) was greater than 100 µM and the TGI (M14 melanoma) was greater than 100 µM. For the same compound, the TGI (OVCAR-3 ovarian) was greater than 100 µM, the TGI (OVCAR-5 ovarian) was greater than 100 µM and the TGI (OVCAR-8 ovarian) was greater than 100 µM. The TGI (SF-539 CNS) was greater than 100 µM, the TGI (SK-MEL-28 melanoma) was greater than 100 µM and the TGI (SNB-19 CNS) was greater than 100 µM. For the same compound, the TGI (T-47D breast) was greater than 100 µM.
Compound CCOC(=O)/C=C(/OCC)[C@@H]1C(C(=O)c2ccc(Cl)cc2)[C@@H]1/C(=C\C(=O)OCC)OCC (stereo partly specified) has a TGI (COLO 205 colon) of 27.4 µM, a TGI (HL-60(TB) leukemia) of 37.5 µM and a TGI (M14 melanoma) greater than 100 µM. It also gave a TGI (OVCAR-3 ovarian) greater than 100 µM, a TGI (OVCAR-5 ovarian) greater than 100 µM and a TGI (OVCAR-8 ovarian) greater than 100 µM. It also gave a TGI (SF-539 CNS) greater than 100 µM, a TGI (SK-MEL-28 melanoma) greater than 100 µM and a TGI (SNB-19 CNS) greater than 100 µM. For the same compound, the TGI (T-47D breast) was greater than 100 µM.
Compound CCOC(=O)CCC(NC(=O)c1ccc(NCc2ccc3nc(OC)c(OC)nc3c2)c2ccccc12)C(=O)OCC (stereo unspecified) has a TGI (COLO 205 colon) greater than 100 µM, a TGI (HL-60(TB) leukemia) greater than 100 µM and a TGI (M14 melanoma) greater than 100 µM. The TGI (OVCAR-3 ovarian) was greater than 100 µM, the TGI (OVCAR-5 ovarian) was greater than 100 µM and the TGI (OVCAR-8 ovarian) was greater than 100 µM. It also gave a TGI (SF-539 CNS) of 56.5 µM, a TGI (SK-MEL-28 melanoma) greater than 100 µM and a TGI (SNB-19 CNS) greater than 100 µM. For the same compound, the TGI (T-47D breast) was greater than 100 µM.
In the case of CC[P+](c1ccccc1)(N(C)C)N(C)C, the TGI (COLO 205 colon) is reported as greater than 100 µM, the TGI (HL-60(TB) leukemia) is reported as greater than 100 µM and the TGI (M14 melanoma) is reported as greater than 100 µM. The TGI (OVCAR-3 ovarian) was greater than 100 µM, the TGI (OVCAR-5 ovarian) was greater than 100 µM and the TGI (OVCAR-8 ovarian) was greater than 100 µM. The TGI (SF-539 CNS) was greater than 100 µM, the TGI (SK-MEL-28 melanoma) was greater than 100 µM and the TGI (SNB-19 CNS) was greater than 100 µM. It also gave a TGI (T-47D breast) greater than 100 µM.
CN1CCN(Cc2ccc(C(=S)Nc3ccccc3)s2)CC1 was tested, and the TGI (COLO 205 colon) was 45.9 µM, the TGI (HL-60(TB) leukemia) was greater than 100 µM and the TGI (M14 melanoma) was 31.9 µM. The TGI (OVCAR-3 ovarian) was greater than 100 µM, the TGI (OVCAR-5 ovarian) was greater than 100 µM and the TGI (OVCAR-8 ovarian) was greater than 100 µM. For the same compound, the TGI (SF-539 CNS) was greater than 100 µM, the TGI (SK-MEL-28 melanoma) was 36.1 µM and the TGI (SNB-19 CNS) was greater than 100 µM. It also gave a TGI (T-47D breast) greater than 100 µM.
In the case of NCC1OC(OC2C(N)CC(N)C(O)C2OC2OC(CO)C(O)C2O)C(N)C(O)C1O (stereo unspecified), the GI50 (COLO 205 colon) is reported as greater than 100 µM, the TGI (COLO 205 colon) is reported as greater than 100 µM and the TGI (HL-60(TB) leukemia) is reported as greater than 100 µM. For the same compound, the TGI (M14 melanoma) was greater than 100 µM, the TGI (OVCAR-3 ovarian) was greater than 100 µM and the TGI (OVCAR-5 ovarian) was greater than 100 µM. For the same compound, the TGI (OVCAR-8 ovarian) was greater than 100 µM, the TGI (SF-539 CNS) was greater than 100 µM and the TGI (SK-MEL-28 melanoma) was greater than 100 µM. For the same compound, the TGI (SNB-19 CNS) was greater than 100 µM and the TGI (T-47D breast) was greater than 100 µM.
In the case of C=C(CCC(=O)N(CCc1c[nH]c2ccccc12)C(=O)c1ccccc1CSCC)C(=O)OC, the TGI (COLO 205 colon) is reported as 54.6 µM, the TGI (HL-60(TB) leukemia) is reported as greater than 100 µM and the TGI (M14 melanoma) is reported as greater than 100 µM. For the same compound, the TGI (OVCAR-3 ovarian) was greater than 100 µM, the TGI (OVCAR-5 ovarian) was greater than 100 µM and the TGI (OVCAR-8 ovarian) was greater than 100 µM. It also gave a TGI (SF-539 CNS) greater than 100 µM, a TGI (SK-MEL-28 melanoma) greater than 100 µM and a TGI (SNB-19 CNS) greater than 100 µM. For the same compound, the TGI (T-47D breast) was greater than 100 µM.
Clc1ccc(-c2nn3c(COc4ccc(OCc5nnc6sc(-c7ccc(Cl)cc7)nn56)c(Cl)c4)nnc3s2)cc1 gave a TGI (COLO 205 colon) greater than 100 µM, a TGI (HL-60(TB) leukemia) of 36 µM and a TGI (M14 melanoma) greater than 100 µM. It also gave a TGI (OVCAR-3 ovarian) greater than 100 µM, a TGI (OVCAR-5 ovarian) of 71.7 µM and a TGI (OVCAR-8 ovarian) of 75 µM. For the same compound, the TGI (SF-539 CNS) was greater than 100 µM, the TGI (SK-MEL-28 melanoma) was greater than 100 µM and the TGI (SNB-19 CNS) was 31.7 µM. It also gave a TGI (T-47D breast) greater than 100 µM.
